The values that follow come from ChEMBL document CHEMBL1201862, “PubChem BioAssay data set” (2004).

SMILES strings stand for the structures.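 Exposure lasted 48 hours, with cells grown in 96-well plates and compounds tested at five concentrations. The concentration for 50% growth inhibition is given as GI50.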 Calls of active or inactive are those of the source. No stated cut-off is given here; in the data, active = GI50 up to about 1.1 µM and inactive = higher.

Among the test systems are SK-MEL-2; ACHN; MDA-MB-435; M14; SN12C; SK-OV-3; SF-295; KM12; SK-MEL-5; NCI-H226; SR; HCT-116; OVCAR-3; MDA-MB-231; MOLT-4; CAKI-1; CCRF-CEM; MCF7; UACC-257; 786-0.
Common to all, as to assay: NCI-60 cell line screen, 48 h

Regarding `CC#CC(O)(C(=O)OC1CCCN(C)C1)C1=CC=CCC1` (configuration not stated), the GI50 in the assay with SK-MEL-2, in the assay on ACHN, in the assay with MDA-MB-435, with M14, in the assay on SN12C and in the assay with SK-OV-3 was > 100 µM (inactive) throughout. Also, the GI50 in the assay with SF-295, with KM12, in the assay with SK-MEL-5, in the assay with NCI-H226, in the assay on SR and in the assay with HCT-116 was > 100 µM (inactive) each time. In addition, the GI50 in the assay with OVCAR-3, in the assay on MDA-MB-231, with MOLT-4, in the assay on CAKI-1, with CCRF-CEM and in the assay on MCF7 was > 100 µM (inactive) in each case. For the same compound, the GI50 with UACC-257 and with 786-0 was > 100 µM (inactive) each time.
With `COc1cc2c3c(c4cc(OC)c(OC)cc4c2cc1OC)[C@H](O)[C@@H]1CCCN1C3`, the GI50 is < 0.0167 µM (active) in the assay on SK-MEL-2; < 0.0157 µM (active) with ACHN; < 0.0265 µM (active) in the assay with MDA-MB-435; < 0.0332 µM (active) in the assay on M14; < 0.0303 µM (active) in the assay with SN12C; < 0.0237 µM (active) with SK-OV-3. Also, the GI50 in the assay with SF-295 was < 0.0222 µM (active); with KM12, < 0.0232 µM (active); with SK-MEL-5, < 0.0259 µM (active); in the assay on NCI-H226, 0.0494 µM (active); in the assay on SR, 0.029 µM (active); with HCT-116 it was < 0.0215 µM (active). In addition, the GI50 with OVCAR-3 was 0.0384 µM (active); with MDA-MB-231, < 0.0342 µM (active); in the assay on MOLT-4, < 0.01 µM (active); with CAKI-1, < 0.0324 µM (active); in the assay with CCRF-CEM it was < 0.0272 µM (active); in the assay on MCF7, < 0.0173 µM (active). In addition, the GI50 was < 0.0383 µM (active) in the assay with UACC-257 and < 0.0321 µM (active) in the assay on 786-0.
`O=C(NC(Nc1ccc(F)c(Cl)c1)(C(F)(F)F)C(F)(F)F)OCc1ccccc1`: the GI50 in the assay with SK-MEL-2 was 69.3 µM (inactive); in the assay with ACHN, 17.7 µM (inactive); with MDA-MB-435, 32.1 µM (inactive); in the assay on M14, 37 µM (inactive); in the assay with SN12C, 31.2 µM (inactive); in the assay with SK-OV-3, 26 µM (inactive). Also, the GI50 in the assay with SF-295 is 28.2 µM (inactive); in the assay with KM12, 36.3 µM (inactive); in the assay with SK-MEL-5, 44.1 µM (inactive); in the assay with NCI-H226, > 100 µM (inactive); in the assay on SR it was 11 µM (inactive); in the assay on HCT-116, 47.5 µM (inactive). The GI50 in the assay with OVCAR-3 is 17.3 µM (inactive); with MDA-MB-231 it was 11.7 µM (inactive); with MOLT-4, 26.4 µM (inactive); with CAKI-1, 34.6 µM (inactive); in the assay with CCRF-CEM, 15.8 µM (inactive); in the assay on MCF7, 19.4 µM (inactive). For the same compound, the results for the GI50 in the assay with UACC-257 and with 786-0 were > 100 µM (inactive) and 18.3 µM (inactive), respectively.
On to `C=CCc1ccccc1C1CC2(C(=O)OC)OC1C(C(=O)OC)=C2C(=O)OC` (configuration not stated), for which the GI50 in the assay on SK-MEL-2, in the assay with ACHN, in the assay on MDA-MB-435, in the assay on M14, in the assay with SN12C and in the assay with SK-OV-3 was > 10 µM (inactive) in each case. Moreover, the GI50 in the assay on SF-295, in the assay with KM12, in the assay with SK-MEL-5, in the assay with NCI-H226, in the assay with SR and in the assay on HCT-116 was > 10 µM (inactive) in each case. Besides, the GI50 in the assay on OVCAR-3, in the assay with MDA-MB-231, in the assay on MOLT-4, in the assay on CAKI-1, in the assay with CCRF-CEM and in the assay on MCF7 was > 10 µM (inactive) throughout. Also, the GI50 in the assay with UACC-257 and in the assay on 786-0 was > 10 µM (inactive) each time.
`O=C1/C(=C/c2ccc(Cl)cc2)N=C(c2ccccc2)N1c1ccc(S(=O)(=O)Nc2nccs2)cc1`: the GI50 in the assay on SK-MEL-2 is 16 µM (inactive); in the assay with ACHN it was 62.5 µM (inactive); in the assay with MDA-MB-435, 23.6 µM (inactive); in the assay with M14, 47.5 µM (inactive); in the assay with SN12C it was 64 µM (inactive); in the assay on SK-OV-3 it was > 100 µM (inactive). The GI50 with SF-295 is 56.5 µM (inactive); in the assay on KM12, 24.8 µM (inactive); in the assay on SK-MEL-5, 23.1 µM (inactive); with NCI-H226, 52.1 µM (inactive); in the assay with SR, 32.7 µM (inactive); in the assay on HCT-116, 33.5 µM (inactive). For the same compound, the GI50 in the assay on OVCAR-3 is 30.5 µM (inactive); with MDA-MB-231, 18.9 µM (inactive); with MOLT-4, 33.2 µM (inactive); with CAKI-1, > 100 µM (inactive); with CCRF-CEM, 27 µM (inactive); in the assay with MCF7 it was 26.1 µM (inactive). Besides, the GI50 in the assay with UACC-257 is 32.7 µM (inactive); with 786-0, 46 µM (inactive).
Regarding `O=c1oc2ccc([N+](=O)[O-])cc2c(Nc2ccc3c(c2)Sc2ccccc2O3)c1[N+](=O)[O-]`, the GI50 was 20.4 µM (inactive) in the assay on SK-MEL-2; 27 µM (inactive) with ACHN; 30.8 µM (inactive) with MDA-MB-435; 19.4 µM (inactive) in the assay with M14; 20 µM (inactive) in the assay with SN12C; 24 µM (inactive) in the assay with SK-OV-3. Besides, the GI50 in the assay with SF-295 is 38.2 µM (inactive); in the assay with KM12, 21.5 µM (inactive); in the assay on SK-MEL-5 it was 20.3 µM (inactive); with NCI-H226, 18.8 µM (inactive); in the assay on SR, 22.5 µM (inactive); in the assay with HCT-116 it was 15.8 µM (inactive). Further, the GI50 with OVCAR-3 was 15.9 µM (inactive); in the assay with MDA-MB-231, 18.6 µM (inactive); in the assay on CAKI-1, 22.3 µM (inactive); in the assay with CCRF-CEM, 18.9 µM (inactive); with MCF7, 22.1 µM (inactive); in the assay with UACC-257, 23.2 µM (inactive). Besides, in the assay with 786-0, the GI50 is 20.3 µM (inactive).
Turning to `O/N=C1/Nc2ccccc2C(=S)N2CSCC12` (configuration not stated), the GI50 in the assay with SK-MEL-2 was > 100 µM (inactive); in the assay with ACHN, > 100 µM (inactive); with MDA-MB-435, 19.4 µM (inactive); with M14 it was 81.3 µM (inactive); in the assay with SN12C, 34 µM (inactive); in the assay on SK-OV-3, > 100 µM (inactive). Further, the GI50 with SF-295 is 63.1 µM (inactive); with KM12, 33 µM (inactive); in the assay on SK-MEL-5, 23.4 µM (inactive); in the assay with NCI-H226, > 100 µM (inactive); with SR it was 22.9 µM (inactive); in the assay with HCT-116, 43.6 µM (inactive). Further, the GI50 in the assay on OVCAR-3 was > 100 µM (inactive); with MDA-MB-231 it was > 100 µM (inactive); in the assay on MOLT-4, > 100 µM (inactive); with CAKI-1, > 100 µM (inactive); in the assay on CCRF-CEM it was 20.2 µM (inactive); with MCF7 it was 52.5 µM (inactive). The GI50 was > 100 µM (inactive) in the assay on UACC-257 and 58.2 µM (inactive) in the assay with 786-0.
`CCCCCCCCCCCCc1ccsc1-c1ccc(-c2ccc(-c3sccc3CCCCCCCCCCCC)s2)s1`: the GI50 in the assay with SK-MEL-2, with ACHN, with MDA-MB-435, with M14, in the assay on SN12C and with SK-OV-3 was > 100 µM (inactive) each time. Moreover, the GI50 in the assay with SF-295, in the assay with KM12, with SK-MEL-5, in the assay with NCI-H226, with SR and in the assay with HCT-116 was > 100 µM (inactive) in each case. Besides, the GI50 with OVCAR-3, in the assay on MDA-MB-231, in the assay on MOLT-4, in the assay with CAKI-1, in the assay on CCRF-CEM and in the assay on MCF7 was > 100 µM (inactive) throughout. Besides, the GI50 in the assay with UACC-257 and in the assay on 786-0 was > 100 µM (inactive) throughout.
Take `C=CCC(C(=O)O)c1ccccc1` (configuration not stated): the GI50 with SK-MEL-2, in the assay on ACHN, in the assay on MDA-MB-435, in the assay with M14, with SN12C and with SK-OV-3 was > 100 µM (inactive) in each case. Further, the GI50 in the assay on SF-295, with KM12, with SK-MEL-5, in the assay on NCI-H226, in the assay with SR and in the assay on HCT-116 was > 100 µM (inactive) each time. Further, the GI50 in the assay on OVCAR-3, in the assay with MDA-MB-231, with MOLT-4, with CAKI-1, in the assay with CCRF-CEM and with MCF7 was > 100 µM (inactive) throughout. Moreover, the GI50 in the assay on UACC-257 and in the assay on 786-0 was > 100 µM (inactive) in each case.
For `Cc1cc(C)nc(NS(=O)(=O)c2ccc(NC(=O)c3cc([N+](=O)[O-])cc([N+](=O)[O-])c3)cc2)n1`, the GI50 is > 100 µM (inactive) in the assay on SK-MEL-2; > 100 µM (inactive) with MDA-MB-435; 45.8 µM (inactive) in the assay with M14; 70.6 µM (inactive) in the assay with SN12C; > 100 µM (inactive) in the assay with SK-OV-3; 50.7 µM (inactive) in the assay on KM12. Moreover, the GI50 in the assay on SK-MEL-5 was 95.3 µM (inactive); in the assay on NCI-H226, > 100 µM (inactive); in the assay with SR, 0.0755 µM (active); with HCT-116, > 100 µM (inactive); with OVCAR-3, 30.5 µM (inactive); in the assay with MDA-MB-231 it was > 100 µM (inactive). For the same compound, the GI50 was 1.79 µM (inactive) in the assay on MOLT-4; > 100 µM (inactive) in the assay on CAKI-1; 59.7 µM (inactive) in the assay with CCRF-CEM; 55 µM (inactive) in the assay with MCF7; 16.4 µM (inactive) in the assay with UACC-257; > 100 µM (inactive) in the assay with 786-0.
